From patent US20220280476A1, “KCNT1 INHIBITORS AND METHODS OF USE” (Praxis Precision Medicines, Inc., priority 2019, published 2022)

molecular target: T1, KCNT1 (KNa1.1, Slack) (Homo sapiens, UniProt Q5JUK3); assay: KCNT1-WT-Basal patch clamp assay (SyncroPatch 384PE, HEK-TREX inducible cell line); assay type: cell-based; conditions: tetracycline inducible HEK-TREX cells; perforated patch; holding -80 mV, 100 ms step to 0 mV; room temperature; read-out: KCNT1 WB IC50
T1 construct: expressed in transfected cells; host or cells: HEK-TREX (tetracycline-inducible HEK cell line)
T1 sequence (Q5JUK3 1-1230): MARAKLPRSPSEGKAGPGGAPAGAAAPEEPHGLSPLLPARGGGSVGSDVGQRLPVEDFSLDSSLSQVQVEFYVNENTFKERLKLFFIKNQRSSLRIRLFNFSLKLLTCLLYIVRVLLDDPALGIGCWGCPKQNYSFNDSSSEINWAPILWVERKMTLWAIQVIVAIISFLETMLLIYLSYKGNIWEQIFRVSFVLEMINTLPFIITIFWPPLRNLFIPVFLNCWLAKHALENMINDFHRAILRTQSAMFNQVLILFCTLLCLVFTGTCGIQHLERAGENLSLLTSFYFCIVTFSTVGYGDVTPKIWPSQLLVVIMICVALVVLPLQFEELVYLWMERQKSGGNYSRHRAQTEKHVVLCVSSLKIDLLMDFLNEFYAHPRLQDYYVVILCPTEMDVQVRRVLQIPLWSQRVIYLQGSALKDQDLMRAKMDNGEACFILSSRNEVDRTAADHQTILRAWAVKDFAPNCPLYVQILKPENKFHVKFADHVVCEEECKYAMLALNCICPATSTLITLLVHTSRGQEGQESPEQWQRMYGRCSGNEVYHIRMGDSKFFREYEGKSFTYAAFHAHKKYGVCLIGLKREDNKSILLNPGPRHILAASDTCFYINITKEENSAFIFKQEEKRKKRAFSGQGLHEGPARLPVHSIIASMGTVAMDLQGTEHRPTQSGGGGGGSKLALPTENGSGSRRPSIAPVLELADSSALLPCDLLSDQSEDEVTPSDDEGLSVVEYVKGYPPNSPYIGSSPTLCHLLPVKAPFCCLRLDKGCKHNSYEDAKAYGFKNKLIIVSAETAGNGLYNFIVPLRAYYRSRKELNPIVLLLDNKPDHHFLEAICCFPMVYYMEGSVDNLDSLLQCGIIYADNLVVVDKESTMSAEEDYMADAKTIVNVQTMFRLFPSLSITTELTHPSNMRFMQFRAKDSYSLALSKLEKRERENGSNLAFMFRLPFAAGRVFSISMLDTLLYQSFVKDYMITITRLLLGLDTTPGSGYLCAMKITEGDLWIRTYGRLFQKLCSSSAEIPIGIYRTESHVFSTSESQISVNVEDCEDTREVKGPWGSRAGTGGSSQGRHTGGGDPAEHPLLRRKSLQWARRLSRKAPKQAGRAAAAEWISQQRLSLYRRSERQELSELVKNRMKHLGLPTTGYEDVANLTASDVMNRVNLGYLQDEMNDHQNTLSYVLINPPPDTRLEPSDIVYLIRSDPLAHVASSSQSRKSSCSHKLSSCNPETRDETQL
Description: KCNT1-WT-Basal—Patch Clamp Assay
Inhibition of KCNT1 (KNa1.1, Slack) was evaluated using a tetracycline inducible cell line (HEK-TREX). Currents were recorded using the SyncroPatch 384PE automated, patch clamp system. Pulse generation and data collection were performed with PatchController384 V1.3.0 and DataController384 V1.2.1 (Nanion Technologies). The access resistance and apparent membrane capacitance were estimated using built-in protocols. Current were recorded in perforated patch mode (10 μM escin) from a population of cells. The cells were lifted, triturated, and resuspended at 800,000 cells/ml. The cells were allowed to recover in the cell hotel prior to experimentation. Currents were recorded at room temperature. The external solution contained the following (in mM): NaCl 105, NMDG 40, KCl 4, MgCl2 1, CaCl2 5 and HEPES 10 (pH=7.4, Osmolarity ˜300 mOsm). The extracellular solution was used as the wash, reference and compound delivery solution. The internal solution contained the following (in mM): NaCl 70, KF 70, KCl 10, EGTA 5, HEPES 5 and Escin 0.01 (pH=7.2, Osmolarity ˜295 mOsm). Escin is made at a 5 mM stock in water, aliquoted, and stored at −20° C. The compound plate was created at 2× concentrated in the extracellular solution. The compound was diluted to 1:2 when added to the recording well. The amount of DMSO in the extracellular solution was held constant at the level used for the highest tested concentration. A holding potential of −80 mV with a 100 ms step to 0 mV was used. Mean current was measured during the step to 0 mV. […] The average mean current from 3 sweeps was calculated and the % inhibition of each compound was calculated. The % Inhibition as a function of the compound concentration was fit with a Hill equation to derive IC50, slope, min and max parameters. If KCNT1 inhibition was less than 50% at the highest tested concentration or if an IC50 could not be calculated, then a percent inhibition was reported in place of the IC50.

IC50 [nM] | SMILES
> 20000 | CS(=O)(=O)Nc1ccc(C(=O)NC2CCc3cc(C(F)(F)F)ccc32)cc1 (single isomer, unassigned) [Compound II-58, 4-(methanesulfonamido)-N-[5-(trifluoromethyl)indan-1-yl]benzamide]
1000 to 20000 | CS(=O)(=O)Nc1ccc(C(=O)NC2CCc3cc(F)ccc32)cc1 (single isomer, unassigned) [Compound II-57, N-[5-fluoroindan-1-yl]-4-(methanesulfonamido)benzamide]
1000 to 20000 | O=C(N[C@@H]1CCc2cc(Cl)ccc21)c1ccc(S(=O)(=O)CC(F)F)cc1 [Compound II-51]
1000 to 20000 | COc1ccc(C(=O)NC2CCc3cc(Cl)ccc32)cc1 (single isomer, unassigned) [Compound II-8, N-(5-chloroindan-1-yl)-4-methoxy-benzamide]
1000 to 20000 | O=C(N[C@@H]1CCc2cc(Cl)ccc21)c1ccc(NS(=O)(=O)C2CC2)cc1 [Compound II-11, N-[(1R)-5-chloroindan-1-yl]-4-(cyclopropylsulfonylamino)benzamide]
1000 to 20000 | COCCN(c1ccc(C(=O)N[C@@H]2CCc3cc(Cl)ccc32)cc1)S(C)(=O)=O [Compound II-43]
≤ 1000 | O=C(N[C@@H]1CCc2cc(Cl)ccc21)c1ccc(F)cc1O [Compound III-4]
≤ 1000 | CN(C)S(=O)(=O)c1ccc(C(=O)N[C@@H]2CCc3cc(Cl)ccc32)cc1 [Compound II-28]
≤ 1000 | Cc1cccc(C(=O)N[C@@H]2CCc3cc(Cl)ccc32)c1O [Compound III-15]
≤ 1000 | CCS(=O)(=O)c1ccc(C(=O)N[C@@H]2CCc3cc(Cl)ccc32)cc1 [Compound II-30]
1000 to 20000 | CN(C)C(=O)CN(c1ccc(C(=O)N[C@@H]2CCc3cc(Cl)ccc32)cc1)S(C)(=O)=O [Compound II-49]
≤ 1000 | CS(=O)(=O)c1ccc(C(=O)N[C@@H]2CCc3cc(Cl)ccc32)cc1 [Compound II-22]
1000 to 20000 | CS(=O)(=O)N(CCO)c1ccc(C(=O)N[C@@H]2CCc3cc(Cl)ccc32)cc1 [Compound II-47]
1000 to 20000 | NS(=O)(=O)Nc1ccc(C(=O)N[C@@H]2CCc3cc(Cl)ccc32)cc1 [Compound II-37]
≥ 20000 | O=C(N[C@@H]1CCc2cc(Cl)ccc21)c1ccc(NS(=O)(=O)C(F)(F)F)cc1 [Compound II-12]
≤ 1000 | O=C(N[C@@H]1CCc2cc(Cl)ccc21)c1cccc(C(F)(F)F)c1O [Compound III-10]
1000 to 20000 | Cc1cc(C(=O)N[C@@H]2CCc3cc(Cl)ccc32)ccc1S(C)(=O)=O [Compound II-48]
≥ 20000 | CS(=O)(=O)Cc1ccc(C(=O)NC2CCc3cc(Cl)ccc32)cc1 (single isomer, unassigned) [Compound II-5, N-(5-chloroindan-1-yl)-4-(methylsulfonylmethyl)benzamide]
≥ 20000 | Nc1ccc(C(=O)N[C@H]2CCc3cc(Cl)ccc32)cc1 (single isomer, unassigned) [Compound II-16]
1000 to 20000 | CN(C)CCN(c1ccc(C(=O)N[C@@H]2CCc3cc(Cl)ccc32)cc1)S(C)(=O)=O [Compound II-44]
1000 to 20000 | CS(=O)(=O)N(CC(F)(F)F)c1ccc(C(=O)N[C@@H]2CCc3cc(Cl)ccc32)cc1 [Compound II-45]
≤ 1000 | CS(=O)(=O)Nc1ccc(C(=O)NC2CCCc3cc(Cl)ccc32)cc1 (single isomer, unassigned) [Compound II-53, N-(6-chlorotetralin-1-yl)-4-(methanesulfonamido)benzamide]
≤ 1000 | CN(c1ccc(C(=O)NC2CCc3cc(Cl)ccc32)cc1)S(C)(=O)=O (single isomer, unassigned) [Compound II-2, N-(5-chloroindan-1-yl)-4-[methyl(methylsulfonyl)amino]benzamide]
≤ 1000 | O=C(N[C@@H]1CCc2cc(Cl)ccc21)c1cc(Cl)ccc1O [Compound III-11]
≤ 1000 | CS(=O)(=O)Nc1ccc(C(=O)N[C@@H]2CCc3cc(Cl)ccc32)c(O)c1 [Compound III-5]
≤ 1000 | CS(=O)(=O)c1ccc(C(=O)N[C@@H]2CCc3cc(Cl)ccc32)cc1F [Compound II-35]
≤ 1000 | CNS(=O)(=O)Nc1ccc(C(=O)N[C@@H]2CCc3cc(Cl)ccc32)cc1 [Compound II-32]
≤ 1000 | COc1cccc(C(=O)N[C@@H]2CCc3cc(Cl)ccc32)c1O [Compound III-14]
≤ 1000 | CS(=O)(=O)Nc1ccc(C(=O)N[C@@H]2CCc3cc(Cl)ccc32)cc1 [Compound II-4, N-[(1R)-5-chloroindan-1-yl]-4-(methanesulfonamido)benzamide]
≤ 1000 | O=C(N[C@@H]1CCc2cc(Cl)ccc21)c1ccc(S(=O)(=O)C2CC2)cc1 [Compound II-39]

The next lines start with the molecule.

SMILES | IC50 [nM]
NS(=O)(=O)c1cc(C(=O)N[C@@H]2CCc3cc(Cl)ccc32)cs1 [Compound I-6] | ≤ 1000
Cc1oc(S(N)(=O)=O)cc1C(=O)N[C@@H]1CCc2cc(Cl)ccc21 [Compound I-11] | ≥ 20000
CC(=O)NCc1ccc(C(=O)N[C@@H]2CCc3cc(Cl)ccc32)s1 [Compound I-44] | ≤ 1000
O=C(N[C@@H]1CCc2cc(Cl)ccc21)c1ccc(S(=O)(=O)N2CCOCC2)s1 [Compound I-45] | ≤ 1000
CNC(=O)c1ccc(C(=O)N[C@@H]2CCc3cc(Cl)ccc32)s1 [Compound I-28] | ≤ 1000
COCCS(=O)(=O)c1ccc(C(=O)N[C@@H]2CCc3cc(Cl)ccc32)s1 [Compound I-47] | ≤ 1000
NS(=O)(=O)c1ccc(C(=O)N[C@H]2CCCc3cc(Cl)ccc32)s1 (single isomer, unassigned) [Compound I-32] | ≤ 1000
CO[C@H]1CCN(S(=O)(=O)c2ccc(C(=O)N[C@@H]3CCc4cc(Cl)ccc43)s2)C1 [Compound I-43] | ≤ 1000
Cc1oc(C(=O)N[C@@H]2CCc3cc(Cl)ccc32)cc1S(N)(=O)=O [Compound I-9] | 1000 to 20000
Cn1nc(C2CC2)cc1C(=O)N[C@@H]1CCc2cc(Cl)ccc21 [Compound I-2] | 1000 to 20000
NS(=O)(=O)c1ccc(C(=O)N[C@@H]2CCc3cc(Cl)ccc32)s1 [Compound I-4] | ≤ 1000
O=C(N[C@@H]1CCc2cc(Cl)ccc21)c1cnc(Cl)s1 [Compound I-37] | ≤ 1000
NS(=O)(=O)c1ccc(C(=O)N[C@@H]2CCCc3cc(Cl)ccc32)s1 (single isomer, unassigned) [Compound I-33] | ≥ 20000
Cn1cc(S(N)(=O)=O)cc1C(=O)N[C@@H]1CCc2cc(Cl)ccc21 [Compound I-7] | ≥ 20000
Cn1nc(C(=O)N[C@@H]2CCc3cc(Cl)ccc32)cc1C1CC1 [Compound I-1] | 1000 to 20000
O=C(N[C@@H]1CCc2cc(Cl)ccc21)c1ccc(S(=O)(=O)N2CC[C@@H](O)C2)s1 [Compound I-40] | ≤ 1000
